Reference: the CheMixHub viscosity set
Where “and” joins values, the source holds several entries; their conditions need not be identical. Identical values can stand only once.

Assay: xn = mol fraction of the nth substance listed

C[N+](=O)[O-] + CO
viscosity [mPa·s]
Conditions | 293.15 K | 298.15 K | 303.15 K | 313.15 K
101 kPa, x1 = 0.0771 | – | 0.5277 | – | –
101 kPa, x1 = 0.1586 | – | 0.5151 | – | –
101 kPa, x1 = 0.216 | – | 0.503 | – | –
101 kPa, x1 = 0.238 | – | 0.502 | – | –
101 kPa, x1 = 0.24 | – | 0.501 | – | –
101 kPa, x1 = 0.244 | – | 0.5 | – | –
101 kPa, x1 = 0.2441 | – | 0.5082 | – | –
101 kPa, x1 = 0.3345 | – | 0.5081 | – | –
101 kPa, x1 = 0.4298 | – | 0.5102 | – | –
101 kPa, x1 = 0.496 | – | 0.495 | – | –
101 kPa, x1 = 0.5305 | – | 0.5169 | – | –
101 kPa, x1 = 0.539 | – | 0.497 | – | –
101 kPa, x1 = 0.579 | – | 0.5 | – | –
101 kPa, x1 = 0.6375 | – | 0.5265 | – | –
101 kPa, x1 = 0.7509 | – | 0.5426 | – | –
101 kPa, x1 = 0.861 | – | 0.55 | – | –
101 kPa, x1 = 0.863 | – | 0.55 | – | –
101 kPa, x1 = 0.8715 | – | 0.5721 | – | –
101 kPa, x1 = 0.875 | – | 0.554 | – | –
101.33 kPa, x2 = 0.0503 | 0.617 | – | 0.551 | 0.493
101.33 kPa, x2 = 0.1004 | 0.596 | – | 0.528 | 0.473
101.33 kPa, x2 = 0.15 | 0.575 | – | 0.511 | 0.458
101.33 kPa, x2 = 0.2003 | 0.561 | – | 0.498 | 0.445
101.33 kPa, x2 = 0.2501 | 0.552 | – | 0.489 | 0.435
101.33 kPa, x2 = 0.3 | 0.542 | – | 0.479 | 0.427
101.33 kPa, x2 = 0.3502 | 0.536 | – | 0.474 | 0.421
101.33 kPa, x2 = 0.4 | 0.531 | – | 0.469 | 0.416
101.33 kPa, x2 = 0.4501 | 0.527 | – | 0.464 | 0.412
101.33 kPa, x2 = 0.5 | 0.525 | – | 0.461 | 0.408
101.33 kPa, x2 = 0.55 | 0.524 | – | 0.459 | 0.406
101.33 kPa, x2 = 0.6001 | 0.524 | – | 0.459 | 0.405
101.33 kPa, x2 = 0.65 | 0.525 | – | 0.458 | 0.405
101.33 kPa, x2 = 0.7 | 0.526 | – | 0.461 | 0.406
101.33 kPa, x2 = 0.7501 | 0.53 | – | 0.463 | 0.409
101.33 kPa, x2 = 0.8 | 0.538 | – | 0.468 | 0.412
101.33 kPa, x2 = 0.8501 | 0.545 | – | 0.474 | 0.417
101.33 kPa, x2 = 0.9 | 0.553 | – | 0.482 | 0.423
101.33 kPa, x2 = 0.95 | 0.566 | – | 0.491 | 0.432

OC[C@@H](O)[C@@H](O)[C@H](O)[C@H](O)CO + O
viscosity, 101 kPa
Conditions | 298.15 K | 303.15 K | 308.15 K | 313.15 K | 318.15 K | 323.15 K
x1 = 0.002 | – | 0.837 mPa·s | 0.748 mPa·s | 0.674 mPa·s | – | 0.565 mPa·s
x1 = 0.003588 | 0.9818 mPa·s | – | – | – | – | –
x1 = 0.004 | – | 0.872 mPa·s | 0.777 mPa·s | 0.705 mPa·s | 0.645 mPa·s | 0.587 mPa·s
x1 = 0.005 | – | 0.909 mPa·s | 0.814 mPa·s | 0.732 mPa·s | 0.671 mPa·s | 0.61 mPa·s
x1 = 0.007 | – | 0.941 mPa·s | 0.845 mPa·s | 0.757 mPa·s | 0.692 mPa·s | 0.626 mPa·s
x1 = 0.007158 | 1.085 mPa·s | – | – | – | – | –
x1 = 0.009 | – | 0.983 mPa·s | 0.883 mPa·s | 0.788 mPa·s | 0.722 mPa·s | 0.653 mPa·s
x1 = 0.01 | – | 1.069 mPa·s | 0.914 mPa·s and 0.949 mPa·s and 0.992 mPa·s | 0.821 mPa·s and 0.886 mPa·s | 0.75 mPa·s and 0.777 mPa·s and 0.81 mPa·s | 0.673 mPa·s and 0.697 mPa·s and 0.731 mPa·s
x1 = 0.01069 | 1.191 mPa·s | – | – | – | – | –
x1 = 0.01422 | 1.311 mPa·s | – | – | – | – | –
x1 = 0.01769 | 1.442 mPa·s | – | – | – | – | –
x1 = 0.018 | – | 1.217 mPa·s | 1.088 mPa·s | 0.966 mPa·s | 0.876 mPa·s | 0.786 mPa·s
x1 = 0.02 | – | 1.17 mPa·s | 1.038 mPa·s | 0.928 mPa·s | 0.84 mPa·s | 0.756 mPa·s

C[N+](=O)[O-] + CCOC(C)=O
298.15 K, 101 kPa
Conditions | viscosity [mPa·s]
x1 = 0.1688 | 0.4555
x1 = 0.3141 | 0.4808
x1 = 0.4395 | 0.5046
x1 = 0.55 | 0.526
x1 = 0.6469 | 0.5465
x1 = 0.733 | 0.5651
x1 = 0.8102 | 0.5828
x1 = 0.8801 | 0.5995
x1 = 0.9429 | 0.6154

CC(=O)c1ccc(C)cc1 + CC#N
308.15 K, 101 kPa
Conditions | viscosity [mPa·s]
x1 = 0.0872 | 0.3857
x1 = 0.1449 | 0.4411
x1 = 0.2088 | 0.5094
x1 = 0.2823 | 0.5871
x1 = 0.3756 | 0.6989
x1 = 0.4771 | 0.826
x1 = 0.6125 | 1.001
x1 = 0.7811 | 1.235
x1 = 0.9146 | 1.454

Cc1cccc(O)c1 + C1COCCO1
308.15 K, 101 kPa
Conditions | viscosity [mPa·s]
x2 = 0.1 | 6.346
x2 = 0.2 | 5.28
x2 = 0.3 | 4.391
x2 = 0.4 | 3.412
x2 = 0.5 | 2.693
x2 = 0.6 | 2.138
x2 = 0.7 | 1.711
x2 = 0.8 | 1.407
x2 = 0.9 | 1.235
